Measured values taken from patent publication US20260062382A1, “CRYSTALLINE FORMS OF TROFINETIDE” (ACADIA Pharmaceuticals Inc., priority 2021, published 2026).
Where a SMILES comes first, the peptide text is derived from it. [ ]: non-standard residue; d: D form. αMeP = C[C@@]1(C(=O)O)CCCN1

Tests used:
Format in all cases: physicochemical
[1] = Long-term (6 month) chemical stability, total impurities by HPLC; conditions: for Total Impurities: 25 ± 2° C./60 ± 5% RH
Description: The long-term (6 month) chemical stability of Form A and amorphous trofinetide were tested under the same conditions: 25±2° C./60±5% relative humidity (RH). […] [table]

[2] = Dynamic vapor sorption-desorption (DVS) analysis
Description: DVS analysis was carried out TA Instruments Q5000 Dynamic Vapor Sorption analyzer. The instrument was calibrated with standard weights and a sodium bromide standard for humidity. Samples were analyzed at 25° C. with a maximum equilibration time of 60 minutes in 10% relative humidity (RH) steps from 5 to 95% RH (adsorption cycle) and from 95 to 5% RH (desorption cycle). Form A is non-hygroscopic.

[3] = Stability under humidity conditions (two days exposure, XRPD / water content)

Total Impurities ([1]; 1 month) [%]	Total Impurities ([1]; 3 months) [%]	Total Impurities ([1]; 6 months)	Total Impurities ([1]; Initial)	Long-term chemical stability compared with amorphous trofinetide ([1]; 6 month, 25±2° C./60±5% RH)	Hygroscopicity ([2]; 25° C.)	Solid form after DVS by XRPD ([2]; after DVS)	Moisture uptake (adsorption cycle) ([2]; exposed from 5% RH to 95% RH)	Moisture loss (desorption cycle) ([2]; exposed from 95% RH to 5% RH)	Solid form change under extreme dry conditions (XRPD) ([3]; open container exposed under 0% RH for two days)	Compound	Stability under humidity conditions ([3]; large range of humidity conditions)
0.3	0.8	1.0%	0.3%	–	–	–	–	–	–	C[C@@]1(C(=O)N[C@@H](CCC(=O)O)C(=O)O)CCCN1C(=O)CN [amorphous trofinetide (Batch 1), glycyl-L-2-methylprolyl-L-glutamic acid] (H-Gly-[αMeP]-Glu-OH)	–
0.2	0.6	0.8%	0.2%	–	–	–	–	–	–	C[C@@]1(C(=O)N[C@@H](CCC(=O)O)C(=O)O)CCCN1C(=O)CN [amorphous trofinetide (Batch 3), glycyl-L-2-methylprolyl-L-glutamic acid] (H-Gly-[αMeP]-Glu-OH)	–
0.0	0.03	<PLOQ	<PLOQ	more stable than amorphous trofinetide	non-hygroscopic	remained as trofinetide Form A	little moisture uptake	little moisture loss	lost the water and became disordered	C[C@@]1(C(=O)N[C@@H](CCC(=O)O)C(=O)O)CCCN1C(=O)CN [Form A, (2S)-2-[[(2S)-1-(2-aminoacetyl)-2-methylpyrrolidine-2-carbonyl]amino]pentanedioic acid] (H-Gly-[αMeP]-Glu-OH)	stable under a large range of humidity conditions
–	0.6	0.9%	0.2%	–	–	–	–	–	–	C[C@@]1(C(=O)N[C@@H](CCC(=O)O)C(=O)O)CCCN1C(=O)CN [amorphous trofinetide (Batch 2), glycyl-L-2-methylprolyl-L-glutamic acid] (H-Gly-[αMeP]-Glu-OH)	–
